Data: article PMC3917258, “6-Bromoisatin Found in Muricid Mollusc Extracts Inhibits Colon Cancer Cell Proliferation and Induces Apoptosis, Preventing Early Stage Tumor Formation in a Colorectal Cancer Rodent Model” (Marine Drugs, 2013)

Legend:
[1] = system: lymphoma (U937) cell line; set-up: method as in PMID 17088067; details: cited from earlier work
[2] = system: human promyelocytic leukemia (HL60) cancer cells; set-up: method as in PMID 11006132; details: 100 µM; cited from earlier work
[3] = system: human neuroblastoma SH-SY5Y cells; set-up: method as in PMID 15876476; details: 50 µM; cited from earlier work
ERK-2 = system: ERK-2; set-up: method as in PMID 11006132; details: 100 µM, compared to the control; cited from earlier work
[4] = system: caspase 3/7 activity in HT29 cells; test: Caspase-Glo 3/7 assay; type: cell-based, human; details: positive control, 5 µM, 12 h
Method: All media and chemicals were purchased from Sigma Aldrich (Castle Hill, NSW, Australia) unless otherwise stated. HT29 human colorectal cancer cell line (passage no. 36-42) were cultured (37 °C and 5% CO2) in Dulbecco’s Modified Eagle’s Medium (DMEM) supplemented with 4500 mg/L L-glutamine, 10% FBS, 100 U/mL Penicillin/Streptomycin and 1% Non-essential Amino Acid (100×), until the cells reached 70% confluence. The cells were harvested from flasks by trypsinization (1× Trypsin-EDTA) and were seeded (20,000 cells/well) into clear 96-well plates (Costar®, Mt Martha, VIC, Australia) for measurement of cell viability and white (opaque) 96-well plates (Interpath, Heidelberg West, VIC, Australia) for determination of apoptosis and necrosis. HT29 cells were incubated for 48 h, then the media was removed and the cells were washed with PBS. To treat the cells, synthetic 6-bromoisatin was dissolved in 100% dimethylsulphoxide (DMSO) then diluted in media and added to the cells at a range of concentrations from 0.1 to 0.01 mg/mL, in triplicate (final DMSO concentration of 1%). 1% DMSO controls were also included on each plate. Staurosporine (5 µM) for apoptosis and lysis solution (5 μL/well, Promega, Alexandria, NSW, Australia) for necrosis were added to the white plates in triplicate, as positive controls. All cells were treated for 12 h. Morphological changes in the cells were observed on an Olympus CK2 inverted optical microscope (×400 magnification) 12 h after treatment. To measure cell viability, the MTT assay was applied, which measures the reduction of MTT tetrazolium salt to formazan, as previously described. To measure necrosis and apoptosis, CytoTox-ONE Homogeneous Membrane Integrity Assay reagent (Promega) and Caspase-Glo 3/7® assay (Promega) were applied respectively, according to our previous study. These assays were all repeated in triplicate on three separate occasions (n = 3).

O=C1Nc2ccc(Br)cc2C1=O [5-bromo-]
activity for killing cancer cells relative to unsubstituted isatin [1]: 5–10 times

O=C1Nc2ccc(F)cc2C1=O [5-fluoroisatin]
activity for killing cancer cells relative to unsubstituted isatin [1]: 5–10 times

O=C1Nc2ccc(I)cc2C1=O [5-iodo-]
activity for killing cancer cells relative to unsubstituted isatin [1]: 5–10 times

O=C1Nc2ccccc2C1=O [isatin, 1H-indole-2,3-dione]
reduction of cell proliferation [2]: 80%
apoptosis [3]: apoptosis was observed
inhibition of phosphorylation of ERK-2 (ERK-2): 35%

CN[C@@H]1C[C@H]2O[C@@](C)([C@@H]1OC)n1c3ccccc3c3c4c(c5c6ccccc6n2c5c31)C(=O)NC4 [staurosporine, reference compound]
caspase 3/7 activity [4]: significant increase
